Tests used:
Assay in all cases: relative viability (nuclei count vs DMSO), 5 days (fraction); higher = more cells survive
[1] = compound: C1=CC=C(C(=C1)C2=CC=C(C=C2)C3=CSC4=C3C(=C(C(=O)N4)C#N)O)O + Cc1nc(Nc2ncc(C(=O)Nc3c(C)cccc3Cl)s2)cc(N2CCN(CCO)CC2)n1 [Dasatinib] (partner 0.075 µM)
Method in brief: (§1)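 Lung cancer cell lines in 1536-well plates were dosed by pin tool the day after seeding, either with one drug alone or with a fixed anchor-drug dose plus five library-drug doses (not always all listed) in √10 steps. After 5 days, cells were fixed and their nuclei stained in one step (final 0.05% Triton X-100, 1% formaldehyde, 1 ug/ml Hoechst), then counted on 4× images. Relative viability is the nuclei count in treated wells divided by that in vehicle wells. Values are medians of duplicate plates.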

TGX 221 + Palbociclib = compound: CC1=CN2C(=O)C=C(N=C2C(=C1)C(C)NC3=CC=CC=C3)N4CCOCC4 [TGX 221] + CC(=O)c1c(C)c2cnc(Nc3ccc(N4CCNCC4)cn3)nc2n(C2CCCC2)c1=O [Palbociclib] (partner 0.5 µM)
Method in brief: as §1

TGX 221 + Navitoclax = compound: CC1=CN2C(=O)C=C(N=C2C(=C1)C(C)NC3=CC=CC=C3)N4CCOCC4 [TGX 221] + CC1(C)CCC(c2ccc(Cl)cc2)=C(CN2CCN(c3ccc(C(=O)NS(=O)(=O)c4ccc(N[C@H](CCN5CCOCC5)CSc5ccccc5)c(S(=O)(=O)C(F)(F)F)c4)cc3)CC2)C1 [Navitoclax] (partner 0.5 µM)
Method in brief: as §1

TGX 221 + Pemetrexed = compound: CC1=CN2C(=O)C=C(N=C2C(=C1)C(C)NC3=CC=CC=C3)N4CCOCC4 [TGX 221] + Nc1nc2[nH]cc(CCc3ccc(C(=O)N[C@@H](CCC(=O)O)C(=O)O)cc3)c2c(=O)[nH]1 [Pemetrexed] (partner 0.2 µM)
Method in brief: as §1

Cell Line | relative viability ([1]; first compound 0.08 µM) | relative viability ([1]; first compound 0.253 µM) | relative viability ([1]; first compound 0.8 µM) | relative viability ([1]; first compound 2.53 µM) | relative viability ([1]; first compound 8 µM) | relative viability (TGX 221 + Palbociclib; first compound 0.08 µM) | relative viability (TGX 221 + Palbociclib; first compound 0.253 µM) | relative viability (TGX 221 + Palbociclib; first compound 0.8 µM) | relative viability (TGX 221 + Palbociclib; first compound 2.53 µM) | relative viability (TGX 221 + Palbociclib; first compound 8 µM) | relative viability (TGX 221 + Navitoclax; first compound 0.08 µM) | relative viability (TGX 221 + Navitoclax; first compound 0.253 µM) | relative viability (TGX 221 + Navitoclax; first compound 0.8 µM) | relative viability (TGX 221 + Navitoclax; first compound 2.53 µM) | relative viability (TGX 221 + Navitoclax; first compound 8 µM) | relative viability (TGX 221 + Pemetrexed; first compound 0.08 µM) | relative viability (TGX 221 + Pemetrexed; first compound 0.253 µM) | relative viability (TGX 221 + Pemetrexed; first compound 0.8 µM) | relative viability (TGX 221 + Pemetrexed; first compound 2.53 µM) | relative viability (TGX 221 + Pemetrexed; first compound 8 µM)
NCI-H2347 | 0.331 | 0.276 | 0.28 | 0.284 | 0.314 | 0.423 | 0.427 | 0.465 | 0.391 | 0.415 | 0.796 | 0.681 | 0.598 | 0.432 | 0.49 | 0.467 | 0.414 | 0.445 | 0.386 | 0.389
ABC-1 | 0.526 | 0.65 | 0.559 | 0.542 | 0.432 | 0.742 | 0.519 | 0.654 | 0.648 | 0.597 |  |  |  |  |  |  |  |  |  | 
NCI-H1563 | 0.469 | 0.553 | 0.529 | 0.439 | 0.477 |  |  |  |  |  |  |  |  |  |  | 0.646 | 0.705 | 0.534 | 0.726 | 0.733
NCI-H1355 | 0.619 | 0.668 | 0.708 | 0.64 | 0.639 | 0.366 | 0.348 | 0.372 | 0.338 | 0.302 | 0.88 | 0.747 | 0.764 | 0.598 | 0.707 | 1.03 | 1.02 | 1.05 | 0.998 | 0.893
NCI-H2228 | 0.511 | 0.476 | 0.567 | 0.606 | 0.475 | 0.692 | 0.689 | 0.989 | 0.675 | 0.719 | 0.856 | 0.949 | 0.609 | 0.931 | 0.644 | 0.357 | 0.369 | 0.356 | 0.313 | 0.332
LXF-289 | 0.185 | 0.188 | 0.223 | 0.23 | 0.231 | 0.595 | 0.628 | 0.612 | 0.641 | 0.568 | 0.966 | 0.967 | 0.929 | 0.882 | 0.945 | 0.926 | 0.918 | 0.897 | 0.937 | 0.961
NCI-H2085 | 0.22 | 0.264 | 0.238 | 0.224 | 0.258 | 0.506 | 0.481 | 0.43 | 0.35 | 0.291 | 1.11 | 0.978 | 0.951 | 0.622 | 0.626 | 0.932 | 0.759 | 0.615 | 0.523 | 0.422
NCI-H2342 | 0.315 | 0.345 | 0.309 | 0.354 | 0.284 | 0.541 | 0.529 | 0.492 | 0.517 | 0.531 |  |  |  |  |  | 0.681 | 0.792 | 0.748 | 0.708 | 0.754
EMC-BAC-2 | 0.35 | 0.332 | 0.306 | 0.283 | 0.316 | 0.493 | 0.492 | 0.51 | 0.547 | 0.439 | 1.16 | 1.1 | 1.13 | 1.11 | 1.05 | 0.468 | 0.43 | 0.428 | 0.464 | 0.463
IA-LM |  |  |  |  |  |  |  |  |  |  | 0.722 | 0.707 | 1.02 | 0.849 | 1.02 |  |  |  |  | 
A549 |  |  |  |  |  |  |  |  |  |  | 1.29 | 1.17 | 1.18 | 1.18 | 1.11 |  |  |  |  | 
NCI-H3122 | 1 | 0.715 | 0.91 | 0.829 | 0.721 | 0.168 | 0.154 | 0.208 | 0.169 | 0.184 | 1.09 | 1.03 | 1.02 | 1.09 | 1.01 | 0.198 | 0.203 | 0.201 | 0.206 | 0.207
LC-2-ad | 0.367 | 0.545 | 0.426 | 0.694 | 0.475 | 0.478 | 0.519 | 0.483 | 0.503 | 0.447 | 0.514 |  | 0.424 | 0.348 | 0.361 | 0.272 | 0.282 | 0.287 | 0.259 | 0.265
NCI-H1299 |  |  |  |  |  |  |  |  |  |  | 1.01 | 1.03 | 1.04 | 1.07 | 0.985 |  |  |  |  | 
NCI-H661 | 0.771 | 0.916 | 1.07 | 0.834 | 0.801 | 0.427 | 0.43 | 0.396 | 0.406 | 0.376 |  |  |  |  |  | 0.878 | 0.919 | 0.955 | 0.955 | 0.853
SW 900 | 0.596 | 0.937 | 0.594 | 0.361 | 0.531 |  | 0.429 | 0.427 | 0.356 | 0.295 |  |  |  |  |  |  | 0.459 | 0.469 | 0.41 | 0.415
NCI-H1703 |  |  |  |  |  |  |  |  |  |  | 1.05 | 0.822 | 0.969 | 0.97 | 0.633 |  |  |  |  | 
NCI-H522 | 0.849 | 0.761 | 0.957 | 0.829 | 0.837 | 0.941 | 1.01 | 0.929 | 0.944 | 0.815 |  |  |  |  |  | 0.811 | 1.01 | 1.13 | 1 | 0.915
NCI-H1623 | 0.484 | 0.548 | 0.496 | 0.603 | 0.546 |  |  |  |  |  |  |  |  |  |  |  |  |  |  | 
NCI-H596 | 0.568 | 0.678 | 0.713 | 0.557 | 0.476 |  |  |  |  |  | 0.996 | 0.863 | 0.969 | 0.902 | 0.886 | 0.441 | 0.419 | 0.473 | 0.452 | 0.479
Calu-6 |  |  |  |  |  |  |  |  |  |  | 0.853 | 0.813 | 0.872 | 0.753 | 0.733 |  |  |  |  | 
NCI-H650 | 0.45 | 0.449 | 0.428 | 0.474 | 0.428 | 0.303 | 0.294 | 0.307 | 0.32 | 0.273 |  |  |  |  |  | 0.87 | 0.894 | 0.919 | 0.882 | 0.926
EBC-1 |  |  |  |  |  |  |  |  |  |  | 0.43 | 0.408 | 0.428 | 0.277 | 0.258 |  |  |  |  | 
NCI-H358 | 0.211 | 0.2 | 0.174 | 0.139 | 0.196 | 0.116 | 0.118 | 0.149 | 0.116 | 0.125 |  |  |  |  |  | 0.189 | 0.167 | 0.168 | 0.166 | 0.174
